Earlier results as cited in patent US8153159B2, “Modafinil modified release pharmaceutical compositions” (Cephalon, Inc., priority 2003, dated 2012).

Columns and labels:
humans = details: Bastuji et al. 1988
monkeys = details: single administration, Duteil et al. 1990
mice = details: single administration, Duteil et al. 1990

In the case of `NC(=O)C[S+]([O-])C(c1ccccc1)c1ccccc1` (stereo not drawn) [Modafinil, 2-(benzhydrylsulfinyl)acetamide], the “treatment of idiopathic hypersomnia and narcolepsy” value (humans) is listed as “successfully tested”, the nocturnal activity (monkeys) is listed as “increased nocturnal activity” and the locomotor activity (mice) is listed as “increased locomotor activity”.
